Test results from US20090156638A1, “Uses of nordihydroguaiaretic acid (NDGA) and derivatives thereof in preventing transmission of sexually transmitted diseases” (priority 2007, published 2009).

What was measured:
[1] = Fourteen day rabbit intravaginal irritation study
[2] = 14-day toxicity study in rats, toxicokinetics; format: in vivo; settings: for Tmax / Cmax: rat, plasma; for Tmax: 500 mg/kg; for Cmax: Group 10 (500 mg/kg), Day 14
Description: The toxicokinetics study consisted of four dose-groups (0, 50, 100, 500 mg/kg) with 6 animals/sex/group. Approximately 0.7 mL of blood was collected from the jugular vein from 3 rats/sex/group rotated in ascending order for each dose group at 0.5, 1, 4, 8, and 12 hours post-dose on Days 1, 7, and 14. Plasma was isolated and analyzed for M4N by HPLC assay.

[3] = Single dose s.c. rabbit irritation study
Description: 4 male and 2 female New Zealand White rabbits received single s.c. injections of saline (1 mL), DMSO (1 mL), 20 mg (0.1 mL) M4N, and 200 mg (1 mL) M4N at each of four sites. Mortality, clinical observations, body weights, dermal irritation, gross necropsy findings, and microscopic pathology were evaluated. […] All injection sites were preserved in 10% neutral-buffered formalin (NBF).

[4] = 14-day toxicity study in dogs, toxicokinetics; format: in vivo, beagle dogs; settings: for highest mean plasma concentration: Day 14; for Tmax: read-out: median Tmax
Description: Three beagle dogs/sex/group received doses of 0 (0.50 mL/kg DMSO), 10, 50, and 100 mg/kg (0.05, 0.25, 0.5 mL/kg) M4N. Approximately 4 mL of blood was collected from the jugular vein at each sampling time point of 0.5, 1, 4, 8, and 12 hours after dosing on Days 1, 7, and 14. Three dogs/sex/group were rotated in ascending order for each dose group. Plasma was isolated and analyzed for M4N by HPLC assay.

[5] = test system: HPV 16; assay: HPV inhibition in C33A cells; format: cell-based; settings: C-33-A, read-out: Inhibitory Concentration (IC50 or EC50)
[6] = test system: HIV-1; assay: microbe, parasite or virus in culture; settings: Human immunodeficiency virus 1, IIIB, COS, read-out: Inhibitory Concentration (IC50 or EC50)
[7] = test system: acyclovir-resistant strains of HSV-1 (HSV-1^R); settings: Chen et al., FIG. 3; cited from earlier work
[8] = test system: HSV-1
Description: The dorsal cutaneous guinea pig model system is a well-established model for HSV-1 infection.
In FIGS. 6A-6D, for topical treatment with M4N sections of shaved and depilated dorsal guinea pig skin were infected equally were infected with HSV-1.
McKrae strain). […] Treatments were administered twice daily and photogragphs were taken at day 6 post-infection. […] Regions 1 and 4 were infected with high levels of HSV-1 (1×10^8 pfu/mL), regions 2 and 5 were infected with moderate levels of HSV-1 (1×10^6 pfu/mL) and regions 3 and 6 were infected with low levels of HSV-1 (1×10^4 pfu/mL).

[9] = test system: Sp1 regulated transcription of HPV E6/E7; assay: Sp1 regulated HPV E6/E7 transcription, luciferase assays and C3 tumor lines; format: cell-based; settings: luciferase assays and HPV induced mouse cervical C3 tumor lines
Source text: (§1) The […] (IE) ICP4 gene of HSV is essential for HSV replication.

[10] = in vivo, 45 mg/kg; cited from earlier work
[11] = Human safety, tolerability and pharmacokinetic study of M4N vaginal ointment
[12] = test system: ICP4 gene of HSV; assay: Inhibition of HSV ICP4 gene transcription; format: cell-based, HSV-1; settings: previously determined
Source text: as §1

[13] = Stability of M4N ointment formulation; format: physicochemical; settings: 2% wt/wt ointment in white petrolatum, 5 mL containers
Source text: Two dosing schemes were used.

[14] = mouse, in vivo
[15] = test system: HSV-2; assay: Mouse vaginal model of HSV-2 infection; format: in vivo, CF-1 mice; settings: 20 mg/ml in Vaseline
Description: The efficacies of […] (FIG. 8A) and […] (FIG. 8A) against HSV-2 in a mouse vaginal model system have also been examined. […] At the end of three days, the vaginal lavages were collected from the washings of the vagina regions. The status of the vaginal HSV-2 infection and replication were examined by their cytopathic effects on cultured human foreskin fibroblast cells. Monitoring and scoring were carried out by three persons independently.

[16] = test system: HSV-1; assay: Mutation-insensitivity: IC50 against HSV-1 over ten virus passages; format: cell-based
Source text: In contrast, host factors, unlike viral factors, are under no selective pressure to mutate and are in general structurally invariable. […] Table 1 compares the IC50 of M4N and acyclovir for ten passages.

[17] = rabbit vaginal irritation study
[18] = all samples, Days 1 and 7, LOQ 0.4000
[19] = fourteen women, M4N ointment/placebo crossover

Question: Which results are given for `COc1ccc(C[C@@H](C)[C@@H](C)Cc2ccc(OC)c(OC)c2)cc1OC` [M4N, tetra-O-methyl-nordihydroguaiaretic acid]?
Answer: early deaths ([1]; 2% w/w intravaginal, 1 mL once daily for 14 days): no early deaths; gross pathology (enlarged liver, irregularly shaped femur, rabbit 32092) ([1]; Group 2): incidental findings and not test article related; hematology vs controls ([1]; Study Day 15, Group 2 (2% w/w), attributed to individual animal variation): statistically significant lower absolute basophil count; clinical chemistry vs controls ([1]; Study Day 15, Group 2, attributed to individual animal variation): statistically significant lower ALT; cumulation after day 14 dosing ([1]; female rabbits, topical per vaginam): no resultant evidence of cumulation; blood concentrations seen ([1]; female rabbits, topical per vaginam, 4 hours post first dose and day 14): ≤ 10 ng/mL; start of absorption into the blood [1, 17]: 30 min; time of peak absorption into the blood [1, 17]: 4 h; effect on measured clinical pathology parameters ([1]; repeated intravaginal administration for 14 days): no apparent test article-related effect; AUClast, females relative to males ([2]; Group 10, Day 14): ~4 times; plasma concentrations ([2]; Groups 8 and 9, Day 14, LOQ 0.4000): < 400 ng/mL; plasma concentrations [2, 18]: < 400 ng/mL; Tmax ([2]; female, females, Group 10, Day 14): 4 h; Cmax ([2]; female, females): 537 ng/mL; Tlast ([2]; females): 12 h; Tmax ([2]; male, males, Group 10, Day 14): 0.5 h; Cmax ([2]; male, males): 333 ng/mL; Tlast ([2]; males): 8 h; histopathology of injection sites compared to DMSO vehicle sites ([3]; rabbit, in vivo, sc): slight increase in the intensity of reactions; effect on body weight or mortality ([3]; single s.c. injection, any dose group): No treatment-related effect; highest mean plasma concentration ([4]; Group 3 (50 mg/kg)): 1.004 µg/mL; AUClast, males relative to females ([4]; Group 3, Day 14): approximately 3 times; Tlast ([4]; Group 3 females): 4 h; highest mean plasma concentration ([4]; Group 4 (100 mg/kg)): 1.096 µg/mL; AUClast, males relative to females ([4]; Group 4, Day 14): ~2 times; plasma concentrations [4, 18]: < 400 ng/mL; concentration at 14 day ([4]; both sexes, beagle, dog, plasma, Group 2 (10 mg/kg), Day 14, read-out: plasma concentration, only sample greater than LOQ): 471 ng/mL; Tmax ([4]; both sexes, beagle, dog, plasma, Groups 3 and 4 except Group 3 males): 4 h; Cmax ([4]; both sexes, beagle, dog, plasma, all groups): 1000 ng/mL; median Tlast ([4]; except Group 3 females): 12 h; Tmax ([4]; male, beagle, dog, plasma, 50 mg/kg, Group 3 males): 8 h; IC50 [5]: 30 µM; IC50 [6]: 11 µM; efficacy against acyclovir-resistant strains of HSV-1 [7]: retains complete efficacy; efficacy by time of first treatment after infection ([8]; 170 μM, first treated 10 min, 24 h, 48 h, 72 h after infection): better efficacy when treatment commenced shortly, within 24, after infection; inhibition of HSV-1 induced cutaneous lesion formation and viral shedding ([8]; topical application, guinea pig): effectively inhibited HSV-1 induced cutaneous lesion formation and viral shedding; toxicity or dermal irritation ([8]; topical, even at the highest soluble concentrations (150 mM)): no evidence of toxicity or dermal irritation; reduction of Sp1 regulated transcription of HPV E6/E7 [9]: dramatically reduces Sp1 regulated transcription of HPV E6/E7; tolerability on intravenous administration [10]: generally good tolerability; tolerability ([11]; 90 mg (2% wt/wt) intravaginally once per day for 7 days, healthy women): well tolerated; detection in serum pharmacokinetic samples ([11]; days 1 and 7, 1, 2, 4, 6 hours after dosing, lower limit of detection 1 ng/mL): no detection of M4N; abdominal pain reported [11, 19]: 1 subjects; groin pain reported [11, 19]: 1 subjects; headaches reported [11, 19]: 3 subjects; tooth abscess reported [11, 19]: 1 subjects; upper respiratory tract infection reported [11, 19]: 2 subjects; application site irritation reported ([11]; might have been caused by the M4N ointment): 1 subjects; inhibition of ICP4 gene transcription [12]: effectively inhibit ICP4 gene transcription; time remained stable at room temperature [13]: 6 months; toxicity [14]: no toxicity; infection in the other 4 mice [15]: very little infection; mice fully infected, out of 8 mice [15]: 4; score of the fully infected mice [15]: 34; IC50 ([16]; Human alphaherpesvirus 1, HSV-1 passage 1): 11.7 µM; IC50 ([16]; Human alphaherpesvirus 1, HSV-1 passage 2): 4.4 µM; IC50 ([16]; Human alphaherpesvirus 1, HSV-1 passage 3): 8.24 µM; IC50 ([16]; Human alphaherpesvirus 1, HSV-1 passage 4): 5.97 µM; IC50 ([16]; Human alphaherpesvirus 1, HSV-1 passage 5): 6.48 µM; IC50 ([16]; Human alphaherpesvirus 1, HSV-1 passage 6): 6.98 µM; IC50 ([16]; Human alphaherpesvirus 1, HSV-1 passage 7): 6.98 µM; IC50 ([16]; Human alphaherpesvirus 1, HSV-1 passage 8): 9.91 µM; IC50 ([16]; Human alphaherpesvirus 1, HSV-1 passage 9): 8.82 µM; IC50 ([16]; Human alphaherpesvirus 1, HSV-1 passage 10): 4.77 µM; change in IC50 against HSV-1 ([16]; following ten passages of virus): no increase in the IC50
